Laboratory results from US9789096B2, “Methods and compositions for selective and targeted cancer therapy” (Board of Regents of the University of Texas System, priority 2013, dated 2017).
pIC50: −log10 of the molar value. Read-outs that look alike come from different tables or passages of the source.

Legend:
[1] = tested on: 12 lung adenocarcinoma cell lines; assay: Proliferation of the panel of 12 lung adenocarcinoma cell lines; assay type: cell-based, human
Procedure: (§1) FIG. 6A. […] Cell viability is plotted vs. compound concentration. Compound was added to cells plated at 15% confluence in 96-well plates in RPMI-1640 media supplemented with 5% Fetal Bovine Serum and 2 mM L-Glutamine. After 4 days of incubation, ATP levels were measured using Cell Titer Glo (Promega). Data are presented as the average of 2 replicates ±SEM.
To discover selective agents, twelve cell lines of diverse genotype were selected for analysis. 108 lung cancer cell lines were initially clustered into six groups based on mRNA expression of genes that underwent frequent copy number variation. Two cell lines were chosen from each group for high throughput chemical screening. All 12 of the chosen cell lines were derived from lung adenocarcinomas, eliminating both lineage and histology as confounders. None of the cell lines chosen for screening harbored EGFR mutations or ALK rearrangements, so that the final set represented a collection of diverse lung adenocarcinoma genotypes for which there are no targeted therapy.
The proliferative impact of each compound in the library was assayed by analyzing total ATP four days after administration of 2.5 μM in a single well. This first pass yielded 15,843 toxins defined as a compound where ATP levels were […] three standard deviations below the mean for at least one cell line. For each of these putative toxins, the average effect on proliferation was retested on each cancer cell line and a non-cancerous immortalized HBEC line (control), yielding a confirmation dataset.
In addition, N-acyl benzothiazoles was also discovered, such as 4-amino-N-(6-methoxybenzo[d]thiazol-2-yl)benzamide (ATB). We compared the proliferation of 12 lung adenocarcinoma cell lines and three HBEC lines after the addition of ATB.
We subsequently synthesized various derivatives that are both selective and potent (Tables 1 and 2). One leading candidate is a benzothiazole, SW202857, that inhibits proliferation in three of 12 adenocarcinoma cell lines at concentrations less than 10 nM.

H2122 = assay: Cell viability dose-response, H2122; assay type: cell-based, human; details: for IC50: NCI-H2122, Tables 3 and 4, read-out: IC50 (uM) vs indicated non-small cell lung cancer cell line H2122
In short: (§2)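 Cells plated at 15% confluence in RPMI-1640 with 5% FBS and 2 mM L-glutamine, treated with compound in a 12-point, 3-fold dilution series from 50 micromolar, in duplicate. ATP measured by Cell Titer Glo after 4 days; IC50 taken from the dose-response curve.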

H2009 = assay: Cell viability dose-response, H2009; assay type: cell-based, human; details: Homo sapiens, NCI-H2009; for IC50: Tables 3 and 4, read-out: IC50 (uM) vs indicated non-small cell lung cancer cell line H2009; for pIC50: 12-point dose-response starting at 50 micromolar, 3-fold increments, in duplicate, read-out: toxicity data, H2009
In short: (§3)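 Cells were plated at 15% confluence in RPMI-1640 with 5% FBS and 2 mM L-glutamine, then exposed to compound for 4 days. Viability was read as cellular ATP by CellTiter-Glo luminescence. Values are means of 2 replicates ±SEM, and IC50 comes from the dose-response curve.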

HCC4017 = assay: Cell viability dose-response, HCC4017; assay type: cell-based, human; details: for IC50: read-out: IC50 (uM) vs indicated non-small cell lung cancer cell line HCC4017; for pIC50: HCC4017, 12-point dose-response starting at 50 micromolar, 3-fold increments, in duplicate, read-out: toxicity data, HCC4017
In short: as §3

HCC95 = assay: Cell viability dose-response, HCC95; assay type: cell-based; details: Homo sapiens; for IC50: Tables 3 and 4, read-out: IC50 (uM) vs indicated non-small cell lung cancer cell line HCC95; for pIC50: 12-point dose-response starting at 50 micromolar, 3-fold increments, in duplicate, read-out: toxicity data, HCC95
Procedure: as §1
(§4) Selectivity may be measured by the half maximal inhibitory concentration (IC50), which, as used herein, is a measure of the effectiveness of a compound in killing cells. This quantitative measure indicates how much of a particular compound is needed to kill a particular cell population by half (e.g., as indicated by the amount of ATP). […] The IC50 can be determined by constructing a dose-response curve. The lower the IC50, the higher the potency, and the greater the difference between IC50 values for different cell lines (e.g., sensitive lines vs. insensitive lines, and sensitive lines vs. normal lines) the greater the selectivity. […]
(§5) With this information, we synthesized and tested a series of small molecules derived in conception from the oxalamide and chromone scaffold including N-acyl ureas, as shown in Tables 6-8. Each compound was tested in a 12-point dose-response study starting at 50 micromolar and decreasing in 3-fold increments to sub-nanomolar concentrations, in duplicate. Additionally, one or more additional cell line was tested in the same way.

H2073 = assay: Cell viability dose-response, H2073; assay type: cell-based, human; details: Homo sapiens; for IC50: NCI-H2073, Tables 3 and 4, read-out: IC50 (uM) vs indicated non-small cell lung cancer cell line H2073; for pIC50: NCI-H2073, 12-point dose-response starting at 50 micromolar, 3-fold increments, in duplicate, read-out: toxicity data, H2073
In short: as §3

H1993 = assay: Cell viability dose-response, H1993; assay type: cell-based; details: Homo sapiens, NCI-H1993; for IC50: Tables 3 and 4, read-out: IC50 (uM) vs indicated non-small cell lung cancer cell line H1993; for pIC50: 12-point dose-response starting at 50 micromolar, 3-fold increments, in duplicate, read-out: toxicity data, H1993
Procedure: as §1, §4, §5

HCC366 = assay: Cell viability dose-response, HCC366; assay type: cell-based; details: Homo sapiens; for IC50: Tables 3 and 4, read-out: IC50 (uM) vs indicated non-small cell lung cancer cell line HCC366; for pIC50: 12-point dose-response starting at 50 micromolar, 3-fold increments, in duplicate, read-out: toxicity data, HCC366
Procedure: as §1, §4, §5

H1395 = assay: Cell viability dose-response, H1395; assay type: cell-based; details: Homo sapiens, NCI-H1395; for IC50: Tables 3 and 4, read-out: IC50 (uM) vs indicated non-small cell lung cancer cell line H1395; for pIC50: 12-point dose-response starting at 50 micromolar, 3-fold increments, in duplicate, read-out: toxicity data, H1395
Procedure: as §1, §4, §5

H460 = assay: Cell viability dose-response, H460; assay type: cell-based; details: Homo sapiens, NCI-H460; for IC50: Tables 3 and 4, read-out: IC50 (uM) vs indicated non-small cell lung cancer cell line H460; for pIC50: 12-point dose-response starting at 50 micromolar, 3-fold increments, in duplicate, read-out: toxicity data, H460
Procedure: as §1, §4, §5

HCC44 = assay: Cell viability dose-response, HCC44; assay type: cell-based, human; details: Homo sapiens; for IC50: HCC44, Tables 3 and 4, read-out: IC50 (uM) vs indicated non-small cell lung cancer cell line HCC44; for pIC50: HCC44, 12-point dose-response starting at 50 micromolar, 3-fold increments, in duplicate, read-out: toxicity data, HCC44
In short: as §3

H1155 = assay: Cell viability dose-response, H1155; assay type: cell-based; details: Homo sapiens, NCI-H1155; for IC50: Tables 3 and 4, read-out: IC50 (uM) vs indicated non-small cell lung cancer cell line H1155; for pIC50: 12-point dose-response starting at 50 micromolar, 3-fold increments, in duplicate, read-out: toxicity data, H1155
Procedure: as §1, §4, §5

HBEC30KT = assay: Cell viability (ATP, Cell Titer Glo, 4 days), HBEC30KT; assay type: cell-based, human
H1819 = assay: Cell viability dose-response, H1819; assay type: cell-based, human; details: for IC50: NCI-H1819, Tables 3 and 4, read-out: IC50 (uM) vs indicated non-small cell lung cancer cell line H1819; for pIC50: 3-fold increments, in duplicate, read-out: toxicity data, H1819
In short: as §2

H2122 cells = assay: Toxicity to H2122 cells with or without CYP4 inhibitor HET0016; assay type: cell-based, human
[2] = Homo sapiens, HCC4017, Tables 3 and 4
[3] = Homo sapiens, Tables 3 and 4, read-out: HBEC30KT IC50
[4] = Homo sapiens, 12-point dose-response starting at 50 micromolar, 3-fold increments, in duplicate, read-out: toxicity data, HBEC30KT
[5] = Homo sapiens, NCI-H2122, Table 9, competitor, read-out: IC50 to H2122 cells

Row | SMILES | IC50 (H2009) [µM] | IC50 (HCC4017; [2]) [µM] | IC50 (HCC95) [µM] | IC50 (H2073) [µM] | IC50 (H1993) [µM] | IC50 (HCC366) [µM] | IC50 (H2122; Homo sapiens) [µM] | IC50 (H1395) [µM] | IC50 (H460) [µM] | IC50 (HCC44) [µM] | IC50 (H1155) [µM] | pIC50 (HBEC30KT; [3]) | IC50 (H1819; Homo sapiens) [µM] | pIC50 (H2122; [5]) | also measured
1 | COc1ccc2nc(NC(=O)c3ccc(N)cc3)sc2c1 [ATB, 4-amino-N-(6-methoxybenzo[d]thiazol-2-yl)benzamide] |  |  |  |  |  |  |  |  |  |  |  |  |  |  | pIC50 ([1]; Homo sapiens, read-out: IC50 against 10 other cell lines, including the normal line): < 6.00; pIC50 (H2122; Homo sapiens, NCI-H2122, read-out: IC50 against the most sensitive cell line (H2122)): 7.32
2 | COc1ccc(C(=O)c2ccc(NC(=O)c3sc4ccccc4c3Cl)cc2)cc1 [SW202855-1] | 13.9 | 15.7 | 9.84 | 36.2 | 17.8 | 49 | 18.3 | 28.4 | 28.8 | 25.4 | 46.1 | 4.61 | 32 |  | 
3 | COc1ccc(CCNC(=O)C(=O)Nc2cccc(Br)c2)cc1 [SW027952] |  |  |  |  |  |  |  |  |  |  |  |  |  |  | pIC50 (H2009): 4.95; pIC50 (HCC4017; Homo sapiens): ≤ 4.30; pIC50 (HCC95): 6.62; pIC50 (H2073): 4.76; pIC50 (H1993): 4.30; pIC50 (HCC366): 4.30; pIC50 (H2122; 12-point dose-response starting at 50 micromolar, 3-fold increments, in duplicate, read-out: toxicity data, H2122): 5.98; pIC50 (H1395): 4.30; pIC50 (H460): 4.30; pIC50 (HCC44): ≤ 4.30; pIC50 (H1155): 4.30; pIC50 (HBEC30KT; [4]): 4.70; pIC50 (H1819; 12-point dose-response starting at 50 micromolar): ≤ 4.30
4 | O=C(NCCc1ccc(O)cc1)NC(=O)c1ccc(Oc2ccccc2)cc1 [SW208523] |  |  |  |  |  |  |  |  |  |  |  |  |  | 7.71 | toxicity to H2122 cells in the presence of CYP450 inhibitor HET0016 (H2122 cells): toxic to H2122 cells in the presence or absence of the CYP450 inhibitor
5 | COc1ccc(CCNC(=O)C(=O)Nc2ccc(C)c(C)c2)cc1 [SW027949] |  |  |  |  |  |  |  |  |  |  |  |  |  |  | pIC50 (H2009): ≤ 4.30; pIC50 (HCC4017; Homo sapiens): ≤ 4.30; pIC50 (HCC95): 6.77; pIC50 (H2073): ≤ 4.30; pIC50 (H1993): 4.30; pIC50 (HCC366): 4.30; pIC50 (H2122; Homo sapiens, NCI-H2122, 12-point dose-response starting at 50 micromolar, 3-fold increments, in duplicate, read-out: toxicity data, H2122): 6.15; pIC50 (H1395): 4.30; pIC50 (H460): 5.88; pIC50 (HCC44): ≤ 4.30; pIC50 (H1155): 4.30; pIC50 (HBEC30KT; [4]): 4.38; pIC50 (H1819; Homo sapiens, NCI-H1819, 12-point dose-response starting at 50 micromolar): ≤ 4.30
6 | NC(=O)c1c(NC(=O)c2sc3ccccc3c2Cl)sc2c1CCCCC2 [SW155113] | 32 | 23 | 100 | 6 | 8.1 | 22.5 | 0.36 | 13.4 | 29 | 27 | 14.5 | 4.48 | 14 |  | 
7 | COc1ccc(CCNC(=O)NC(=O)c2ccc(Oc3ccccc3)cc2)cc1 [SW208456] |  |  |  |  |  |  |  |  |  |  |  |  |  | 7.87 | toxicity to H2122 cells in the presence of CYP450 inhibitor HET0016 (H2122 cells): rescued
8 | COc1ccc2nc(NC(=O)c3ccc(N)cc3)sc2c1 [SW001286] | 22 | 35 | 2 | 0.3 | 27 | 35 | 0.048 | 35 | 0.4 | 3 | 25 | 3.89 | 24 | 7.40 | 
9 | O=C(Nc1cccc(NC(=O)c2sc3ccccc3c2Cl)c1)c1cccc(Cl)c1 [SW023441] | 9.4 |  | 14 | 6.2 | 11 | 23 | 0.39 | 10.5 | 48 | 32 | 29 |  | 16.4 |  | IC50 (HCC4017; Tables 3 and 4): 18 µM; pIC50 (HBEC30KT; Tables 3 and 4, read-out: HBEC30KT IC50): 4.52
10 | CNC(=O)c1cccc(NC(=O)N2CCC(Oc3ccccc3Cl)CC2)c1 [compound 28c, reference compound] |  |  |  |  |  |  |  |  |  |  |  |  |  |  | toxicity to the same 4 non-small cell lung cancer cell lines ([1]; FIG. 8E): toxic
